{"source": "patent US11896704B2", "about": "“Compounds useful for the treatment and/or care of the skin, hair, nails and/or mucous membranes” (LUBRIZOL ADVANCED MATERIALS, INC., priority 2017, dated 2024)", "note": "The star is where a group is joined. Palmitoyl = CCCCCCCCCCCCCCCC(=O)*; NHhexadecyl = CCCCCCCCCCCCCCCCN*; NHHex = CCCCCCN*", "data": [{"tested_on": "mitochondrial complex I (NADH dehydrogenase)", "assay": "Mitochondrial complex I activity in human dermal fibroblasts, colorimetric assay", "assay_type": "cell-based", "conditions": "HDFa, 10 mM, 48 hours, positive control", "experimental": "Inhibition of Mitochondrial Complex I Activity Using an Assay Based on Colorimetric Detection. Human Dermal Fibroblasts from adult (HDFa, Life Technologies) are seeded at a density of 750.000 cells/75 cm^2 flask (one flask per condition) in culture medium M106 with Low Serum Growth Supplement (Life Technologies). Cells are grown during 8 days at 37° C. in 5% CO2 humidified air. Then, medium is removed and cells are treated with scalar dilutions of the peptide […] (PEP-1, H-[SEQ ID. NO. 2]-NH2) at 1, 0.5 and 0.1 mg/ml in culture medium during 48 hours at 37° C. in 5% CO2 humidified air. Non-treated cells incubated in culture medium alone are used as basal conditions. […] After 48 hours of treatment, cells are detached using trypsin and resuspended in 60 ul of Phosphate buffer saline (Sigma). Total protein concentration is measured by a Pierce BCA Protein Assay Kit (BCA Assay, Thermo Scientific) following manufacturer's protocol to adjust the final protein concentration between 700-1000 ug/ml. Briefly, standards and samples are dispensed and Working Reagent is added to the samples. After 30 minutes of incubation at 37° C., absorbance is measured with a microplate reader (Clariostar®, BMG) at 562 nm. Mitochondrial complex I activity is measured with Complex I enzyme activity microplate assay Kit (Abcam) according to the manufacture's protocol. This assay follows the oxidation of NADH to NAD coupled to the reduction of a specific colorimetric dye, leading to an increase in absorbance at 450 nm. In brief, 200 ul of each sample (adjusted to 700-1000 ug/ml of total protein amount) is incubated for 3 hours. After that, wells are washed several times and incubated with Assay Solution provided with the kit (composed by NADH and the specific dye). For the determination of mitochondrial complex I activity, colorimetric increase of Optical Density (OD) at 450 nm in a kinetic reaction along 1 hour is measured with a microplate reader (Clariostar©, BMG). Results are calculated as the rate of increase in OD at 450 nm between two points in the linear zone over time. The percentage of mitochondrial complex I activity relative to basal conditions after the treatment with […] (PEP-1, H-[SEQ ID. NO. 2]-NH2) is represented in Table 9. These values represent the mean for at least three independent assays.", "units": {"Percentage of mitochondrial complex I activity relative to basal condition (%)": "%"}, "values": [{"molecule": "CN(C)C(=N)N=C(N)N", "note": "[Metformin, reference compound]", "Percentage of mitochondrial complex I activity relative to basal condition (%)": 63.61}]}, {"tested_on": "Human Dermal Fibroblasts (HDFa)", "assay": "Reactive oxygen species (ROS) levels in HDFa, fluorescence", "assay_type": "cell-based", "conditions": "0.05 mM, 30 min, positive control", "experimental": "Evaluation of Reactive Oxygen Species (ROS) Levels on Human Dermal Fibroblasts (HDFa) by a Fluorescence Approach. Human Dermal Fibroblasts from adult (HDFa, Life Technologies) are seeded at a density of 10,000 cells/well (3 wells per condition) in 96-well plates in culture medium M106 with Low Serum Growth Supplement (LSGS, Life Technologies). Cells are grown during 24 hours at 37° C. in 5% CO2 humidified air. Then, medium is removed and cells are treated with the peptide […] (PEP-1, H-[SEQ ID. NO. 2]-NH2) during 16 hours at 37° C. in 5% CO2 humidified air. Non-treated cells incubated in treatment medium alone are used as basal conditions. […] After 30 min at 37° C. in 5% CO2 humidified air, cells are used to quantify ROS levels. ROS levels are quantified using a Cellular Reactive Oxygen Species Detection Assay Kit (Abcam) according to the manufacture's protocol. […] After the period of time, fluorescence signal is determined using Operetta® confocal microscope (PerkinElmer, Inc). Fluorescence intensities are measured using Mitotracker OrangeTM channel (Excitation Filter: 520-550 nm/Emission Filter: 560-630 nm) and are corrected by the determination of the number of nuclei per well. […]", "units": {"Percentage of ROS level relative to basal control conditions (%)": "%"}, "values": [{"molecule": "OO", "note": "[Hydrogen peroxide, Hydrogen Peroxide]", "Percentage of ROS level relative to basal control conditions (%)": 1309.23}]}, {"tested_on": "JARID1A gene", "assay": "JARID1A gene expression in synchronized human epidermal keratinocytes (HEKa), real time PCR arrays", "assay_type": "cell-based", "conditions": "0.005 mg/ml, one experiment", "experimental": "(§1) In Vitro Study of JARID1A Gene Expression in Synchronized Human Epidermal Keratinocytes from Adult (HEKa) Using Real Time PCR Arrays.\n(§2) HEKa cells (Life Technologies) are seeded at 3.0×10^5 cells/well in 12-well plates (2 wells per condition) and incubated in culture medium, Keratinocyte growth medium supplemented with Mix C39016-CaCl2 solution (Promocell). For synchronization, cells were subjected to two alternative cycles of 12 hours each at 37° C. in 5% CO2 humidified air (day mode) and 33° C. in 5% CO2 humidified air (night mode). 12 hours after starting synchronization, cells are incubated with the peptides at 0.5 mg/ml or (5 μg/ml) in culture medium, depending on the toxicity effects of each peptide (non-toxic conditions are selected). Cells treated with medium alone are used as basal condition.\n(§3) At the end of synchronization, cell lysates are collected at two different times: 7:30 hour (early morning point) and 11:30 hour (midday point). Briefly, cells are lysed directly in the wells, and RNA is purified following the protocol described on the RNeasy™ Mini kit (Qiagen) according to the manufacture's protocol. After RNA elution, quantification and analysis of purity of RNA samples are performed with a nanodrop (Thermo). For each sample, 3 μg of high quality RNA is retrotranscribed with iScript Advanced™ (BioRad) in a final volume of 20 μl. Complete reaction mix is incubated in a thermal cycler (Eppendorf) at 42° C. for 30 minutes, and the reaction is stopped at 85° C. for 5 minutes. Complementary DNA is amplified by qPCR in a real-time PCR thermocycler (BioRad) using SYBR Green Supermix™ (BioRad) in the 96-well plate for use with SYBR® Green (BioRad). SYBR Green binds to double-stranded DNA molecules and emits fluorescence which is quantified, and the fluorescence intensity is proportional to the amount of the product in the PCR reaction. Cycling conditions in BioRad CFX96™ instrument are: 95° C. for 3 minutes, followed by 40 cycles of denaturing at 95° C. for 5 seconds, annealing and elongation at 60° C. for 30 seconds. GAPDH (Glyceraldehyde 3-phosphate dehydrogenase), TBP (TATA box binding protein) and HRPT1 (hypoxanthine phosphoribosyltransferase 1) are used as endogenous controls. Fold change relative to the expression of the sample genes and reference genes is calculated using normalized expression (AA(Ct)) method using CFX Manager Software™ (BioRad).\n(§4) Fold induction of JARID1A gene at 7:30 hour with respect to basal conditions at 7:30 hour for the samples tested are shown in Table 7. The data for fold induction represent the value of one experiment.", "units": {"Fold induction with respect to Basal condition at 7:30h (%)": "%"}, "values": [{"molecule": "Palm-Phe-Trp-Met-Lys-Arg-Lys-Arg-Val-Pro-NH2 (Palmitoyl-FWMKRKRVP-NH2; SMILES CCCCCCCCCCCCCCCC(=O)N[C@@H](Cc1ccccc1)C(=O)N[C@@H](Cc1c[nH]c2ccccc12)C(=O)N[C@@H](CCSC)C(=O)N[C@@H](CCCCN)C(=O)N[C@@H](CCCNC(=N)N)C(=O)N[C@@H](CCCCN)C(=O)N[C@@H](CCCNC(=N)N)C(=O)N[C@H](C(=O)N1CCC[C@H]1C(N)=O)C(C)C) [PEP-2]", "Fold induction with respect to Basal condition at 7:30h (%)": 122.22}, {"molecule": "Palm-Phe-Trp-Met-Lys-Arg-Lys-Arg-Val-Pro-OH (Palmitoyl-FWMKRKRVP-OH; SMILES CCCCCCCCCCCCCCCC(=O)N[C@@H](Cc1ccccc1)C(=O)N[C@@H](Cc1c[nH]c2ccccc12)C(=O)N[C@@H](CCSC)C(=O)N[C@@H](CCCCN)C(=O)N[C@@H](CCCNC(=N)N)C(=O)N[C@@H](CCCCN)C(=O)N[C@@H](CCCNC(=N)N)C(=O)N[C@H](C(=O)N1CCC[C@H]1C(=O)O)C(C)C) [PEP-5]", "Fold induction with respect to Basal condition at 7:30h (%)": 121.55}]}, {"tested_on": "JARID1A gene", "assay": "JARID1A gene expression in synchronized human epidermal keratinocytes (HEKa), real time PCR arrays", "assay_type": "cell-based", "conditions": "0.5 mg/ml, one experiment", "experimental": "as §1, §2, §3, §4", "units": {"Fold induction with respect to Basal condition at 7:30h (%)": "%"}, "values": [{"molecule": "Ac-Phe-Trp-Met-Lys-Arg-Lys-Arg-Val-Pro-NH2 (Ac-FWMKRKRVP-NH2) [PEP-3]", "Fold induction with respect to Basal condition at 7:30h (%)": 126.63}, {"molecule": "Ac-Phe-Trp-Met-Lys-Arg-Lys-Arg-Val-Pro-OH (Ac-FWMKRKRVP-OH) [PEP-6]", "Fold induction with respect to Basal condition at 7:30h (%)": 109.08}, {"molecule": "H-Phe-Trp-Ile-Gln-Arg-Lys-His-Met-Pro-NH2 (H-FWIQRKHMP-NH2) [PEP-10]", "Fold induction with respect to Basal condition at 7:30h (%)": 138.09}, {"molecule": "H-Phe-Trp-Leu-Arg-Arg-Lys-Lys-Ile-Pro-NH2 (H-FWLRRKKIP-NH2) [PEP-9]", "Fold induction with respect to Basal condition at 7:30h (%)": 141.90}, {"molecule": "H-Phe-Trp-Leu-Lys-Arg-Lys-Arg-Val-Pro-NH2 (H-FWLKRKRVP-NH2) [PEP-11]", "Fold induction with respect to Basal condition at 7:30h (%)": 127.91}, {"molecule": "H-Phe-Trp-Met-Arg-Arg-Lys-Arg-Val-Pro-NH2 (H-FWMRRKRVP-NH2) [PEP-12]", "Fold induction with respect to Basal condition at 7:30h (%)": 203.75}, {"molecule": "H-Phe-Trp-Met-Lys-Arg-Lys-Arg-Ile-Pro-NH2 (H-FWMKRKRIP-NH2) [PEP-14]", "Fold induction with respect to Basal condition at 7:30h (%)": 187.65}, {"molecule": "H-Phe-Trp-Met-Lys-Arg-Lys-Arg-Leu-Pro-NH2 (H-FWMKRKRLP-NH2) [PEP-15]", "Fold induction with respect to Basal condition at 7:30h (%)": 123.90}, {"molecule": "H-Phe-Trp-Met-Lys-Arg-Lys-Arg-Val-Pro-NHC6H13 (H-FWMKRKRVP-NHHex; SMILES CCCCCCNC(=O)[C@@H]1CCCN1C(=O)[C@@H](NC(=O)[C@H](CCCNC(=N)N)NC(=O)[C@H](CCCCN)NC(=O)[C@H](CCCNC(=N)N)NC(=O)[C@H](CCCCN)NC(=O)[C@H](CCSC)NC(=O)[C@H](Cc1c[nH]c2ccccc12)NC(=O)[C@@H](N)Cc1ccccc1)C(C)C) [PEP-7]", "Fold induction with respect to Basal condition at 7:30h (%)": 159.64}, {"molecule": "H-Phe-Trp-Met-Lys-Arg-Lys-Arg-Val-Pro-NHC16H33 (H-FWMKRKRVP-NHhexadecyl; SMILES CCCCCCCCCCCCCCCCNC(=O)[C@@H]1CCCN1C(=O)[C@@H](NC(=O)[C@H](CCCNC(=N)N)NC(=O)[C@H](CCCCN)NC(=O)[C@H](CCCNC(=N)N)NC(=O)[C@H](CCCCN)NC(=O)[C@H](CCSC)NC(=O)[C@H](Cc1c[nH]c2ccccc12)NC(=O)[C@@H](N)Cc1ccccc1)C(C)C) [PEP-8]", "Fold induction with respect to Basal condition at 7:30h (%)": 113.64}, {"molecule": "H-Phe-Trp-Met-Lys-Arg-Lys-Arg-Val-Pro-OH (H-FWMKRKRVP-OH) [PEP-4]", "Fold induction with respect to Basal condition at 7:30h (%)": 158.92}, {"molecule": "H-Phe-Trp-Met-Lys-Arg-Lys-Lys-Val-Pro-NH2 (H-FWMKRKKVP-NH2) [PEP-13]", "Fold induction with respect to Basal condition at 7:30h (%)": 147.62}]}]}
